Tests used:
[1] = IMMH-010 stability in human plasma; format: in vitro ADME; settings: 10 μM, after 1 h of incubation
Procedure: (§1) IMMH-010 hydrolysis was investigated in human, monkey, rat, and mouse plasma. […] IMMH-010 (10 μM) was incubated in rat or mouse plasma (0.2 mL) at 4 °C for 60 min. The experiments were performed in triplicate. The reactions were initiated by the addition of IMMH-010 (10 μM). After incubation, the reactions were stopped by adding 2 volumes of ice-cold acetonitrile. After vortexing and centrifuging, the concentrations of IMMH-010 and YPD-29B in the supernatant were determined by liquid chromatography with tandem mass spectrometry (LC-MS/MS). The compound olmesartan (10 μM), a substrate of paraoxonase 1, was set as the positive control.

[2] = IMMH-010 stability in monkey plasma; format: in vitro ADME; settings: 10 μM, after 1 h of incubation
Procedure: as §1

[3] = IMMH-010 stability in mouse plasma; format: in vitro ADME; settings: 10 μM, after 1 h of incubation
Procedure: (§2) IMMH-010 hydrolysis was investigated in human, monkey, rat, and mouse plasma. IMMH-010 (1 μM) was incubated in human, monkey, or […] plasma (0.2 mL) at 37 °C for 120 min. IMMH-010 (10 μM) was incubated in rat or mouse plasma (0.2 mL) at 4 °C for 60 min. The experiments were performed in triplicate. The reactions were initiated by the addition of IMMH-010 (10 μM). After incubation, the reactions were stopped by adding 2 volumes of ice-cold acetonitrile. After vortexing and centrifuging, the concentrations of IMMH-010 and YPD-29B in the supernatant were determined by liquid chromatography with tandem mass spectrometry (LC-MS/MS). The compound olmesartan (10 μM), a substrate of paraoxonase 1, was set as the positive control.

[4] = IMMH-010 stability in rat plasma; format: in vitro ADME; settings: 10 μM, after 1 h of incubation
Procedure: as §2

[5] = tested on: cDNA-expressed human CYPs and FMOs; assay: IMMH-010 metabolism by cDNA-expressed human CYPs and FMOs; format: in vitro ADME; settings: IMMH-010 10 µM, 50 pmol enzyme, 30 min, NADPH
Procedure: cDNA-expressed human CYPs were also used to investigate the enzymes mediating IMMH-010 metabolism. IMMH-010 (10 µM) was incubated individually with 50 pmol of 10 individual cDNA-expressed human CYPs (CYP1A1, CYP1A2, CYP2A6, CYP2B6, CYP2C9, CYP2C19, CYP2D6, CYP2E1, CYP2J2, or CYP3A4) and three cDNA-expressed human FMO enzymes (FMO1, FMO3, and FMO5) at 37 °C for 30 min. An NADPH regeneration system was added to initiate the reactions. Probe substrates of the CYPs were used as the positive controls. Incubations without NADPH served as the negative controls. All reactions were carried out in a final volume of 0.2 mL Tris-HCl buffer (50 mM, pH 7.4) containing 5 mM MgCl2 and conducted in triplicate. All incubations were terminated by 2 volumes of acetonitrile. After centrifugation at 14,000 rpm for 5 min, the samples were analyzed by LC-MS/MS.

[6] = Identification of IMMH-010 metabolites in rat urine, bile and feces; format: in vivo; settings: after oral IMMH-010 maleate 5 mg/kg
Procedure: After oral administration of IMMH-010 maleate (5 mg/kg), two rats were housed in metabolic cages to collect urine and feces samples for 24 h. Feces samples were homogenized with methanol at 1:10 (w/v) and urine samples were diluted 10-fold in methanol. Additionally, two rats were bile duct cannulated under isoflurane anesthesia. After oral administration of IMMH-010 maleate (5 mg/kg), bile samples were collected over 0–2 h after dosing.
LC-MS was performed using a Thermo Scientific Q Exactive HF hybrid quadrupole-Orbitrap mass spectrometer. Reverse-phase liquid chromatography was performed on a Zorbax C18 column (100 × 2.1 mm, 3.5 μm). Mobile phase A was 0.1% aqueous formic acid and mobile phase B was 0.1% formic acid in methanol. The mobile phase was delivered with the following gradient elution profile: 0 min, 10% B; 15 min, 40% B; 17–19 min, 100% B; 20–23 min, 10% B. The total runtime for each injection was 23 min. The flow rate was 0.3 mL/min, and the column oven was maintained at 30 °C.
The analysis was performed in full mass spectrometry with data-dependent tandem mass spectrometry (MS/dd-MS^2) mode. For a full mass spectrometry scan, the selected scan range was from m/z 100 to 500, the resolution was 70,000, and the automatic gain control (AGC) target was set to 1.0 × 10^6 with a maximum injection time (IT) of 100 ms. For the dd-MS^2 scan, the fragmentation mass spectra were recorded at a mass resolving power of 17,500 fwhm with a quadrupole isolation window of 1.5 m/z for precursor ions. The AGC target was 2.0 × 10^5 and the maximum IT was 50 ms.
Xcalibur 4.1 software (Thermo Fisher Scientific, San Jose, CA, USA) was used for instrument control and data processing. Compound Discover 2.0 software was used for metabolite identification.

[7] = Metabolism in human liver microsomes; format: in vitro ADME; settings: NADPH-dependent
Procedure: (§3) To compare the differences in IMMH-010 metabolism between the liver and intestine, IMMH-010 (10 μM) was incubated with rat liver and intestinal S9 homogenate protein (1 mg protein/mL) and with human liver and intestinal microsomes (0.2 mg protein/mL) in a final volume of 0.2 mL Tris-HCl buffer (50 mM, pH 7.4) containing 5 mM MgCl2. The incubations were performed in duplicate in the presence and absence of an NADPH regenerating system. After 2 min preincubation at 37 °C, reactions were initiated by the addition of IMMH-010 (10 μM). Incubations were terminated by acetonitrile at 0, 10, and 20 min. IMMH-010, YPD-29B, M2, and M3 were quantified by LC-MS/MS assay. Midazolam (10 μM, a substrate of CYP3A4) was set as the positive control.

[8] = Metabolism in human intestinal microsomes; format: in vitro ADME; settings: NADPH-dependent
Procedure: as §3

[9] = PK study in male cynomolgus monkeys; format: in vivo, cynomolgus monkey; settings: single oral IMMH-010 maleate 5 mg/kg
Procedure: IMMH-010 maleate was suspended with 0.5% carboxymethyl cellulose to make a 1 mg/mL suspension for PO gavage. Four male cynomolgus monkeys received a single oral dose of IMMH-010 maleate (5 mg/kg). Serial blood samples were collected upto 48 h. The plasma was separated and the plasma concentrations of IMMH-010 and YPD-29B were determined by LC-MS/MS.
(§4) LC-MS/MS was performed using a triple quadrupole mass spectrometer (API 4000, AB Sciex, Framingham, MA, USA) with an ultra-performance liquid chromatography system (LC-30A, Shimadzu, Kyoto, Japan). Analyst 1.6.2 software (AB Sciex) was used for data acquisition and analysis. Mobile phase A was 1 mM ammonium acetate and mobile phase B was methanol. The mobile phase was delivered with the following gradient elution profile: 0–2.8 min, 70% B; 2.9 min, 85% B; 3 min, 90% B; 3.1–6.8 min, 100% B; 6.9–12 min, 70% B. The flow rate was 0.3 mL/min, and the column oven was maintained at 35 °C. The specific transitions monitored were 641.3 → 494.2 for IMMH-010, 597 → 155 for YPD-29B, 512 → 247 for M3, and 524 → 246 for M4.
(§5) All statistics were calculated using GraphPad Prism 8.0 software (San Diego, CA, USA) designed for one-way ANOVA. Pharmacokinetic parameters were calculated with a non-compartmental analysis using WinNonlin Version 6.3 (Pharsight, Mountain View, CA, USA). ADMET predictor V10.0 (Simulations Plus, Inc., Lancaster, CA, USA) and Microsoft Excel (Microsoft, Redmond, WA, USA) were used to process the data (i.e., half-life (t1/2) and hepatic clearance (CLhep) determination). Data were expressed as means ± standard deviations (SD). Results were considered statistically significant if the p-value <0.05, <0.01 and <0.001.

[10] = Plasma and tumor PK in MC38 colon cancer xenograft mice; format: in vivo, mouse
Procedure: (§6) After the final dose, tumor and blood samples treated with IMMH-010 maleate (5 mg/kg) were collected over 72 h. Blood was exposed in an EP tube containing 500 mM NaF and 0.5% heparin sodium. Plasma samples were obtained by centrifugation, and tumor tissues were homogenized with 3 volumes (w/v) of saline on ice. The concentration of IMMH-010 and YPD-29B in plasma and tumor samples was quantitated by an LC-MS/MS method.
as §4, §5

[11] = Plasma and tumor PK in B16F10 melanoma xenograft mice; format: in vivo, mouse
Procedure: as §6, §4, §5

[12] = Metabolism in human liver S9 fractions; format: in vitro ADME; settings: human, monkey, dog and rat liver S9 incubations of IMMH-010 10 μM
Procedure: IMMH-010 metabolism was compared in human, monkey, dog, and rat liver S9 homogenates. IMMH-010 (10 μM) was incubated with liver S9 homogenate protein (0.5 mg protein/mL) and a reduced nicotinamide adenine dinucleotide phosphate (NADPH) regenerating system in a final volume of 0.2 mL Tris-HCl buffer (50 mM, pH 7.4) containing 5 mM MgCl2. The reactions were performed in triplicate. After 2 min of preincubation at 37 °C, reactions were initiated by the addition of IMMH-010 (10 μM). The samples were collected 0, 5, 10, and 20 min after incubation, 2 volumes of acetonitrile were added to terminate the reaction. After vortexing and centrifugation, IMMH-010, YPD-29B, M3, and M4 in the supernatant were analyzed by LC-MS/MS.
as §5

Structure (SMILES): CCCc1nc(C(C)(C)O)c(C(=O)O)n1Cc1ccc(-c2ccccc2-c2nnn[nH]2)cc1 [olmesartan, reference compound]
- decrease of control compound in plasma [1]: more than 80%
- decrease of control compound in plasma [2]: more than 80%
- decrease of control compound in plasma [3]: more than 80%
- decrease of control compound in plasma [4]: more than 80%

Structure (SMILES): O=Cc1cc(Cl)c(OCc2cccc(-c3ccccc3)c2Br)cc1OCc1cccnc1 [M2]
- enzyme with the highest metabolic activity for formation of the metabolite [5]: CYP2D6
- metabolite in rat feces and bile [6]: detected
- transformation ratio of IMMH-010 to this metabolite [7]: < 2%
- transformation ratio of IMMH-010 to this metabolite [8]: < 2%

Structure (SMILES): O=C(O)[C@H](CO)NCc1cc(Cl)c(OCc2cccc(-c3ccccc3)c2Br)cc1OCc1cccnc1 [YPD-29B]
- metabolite in rat feces and bile [6]: detected
- metabolite in rat urine ([6]; 24 h urine): found
- AUC ([9]; cynomolgus monkey, plasma): 186 ng·h/mL
- Cmax ([9]; cynomolgus monkey, plasma): 35.5 ng/mL
- half-life ([9]; cynomolgus monkey, plasma, read-out: mean t1/2β in plasma (converted)): 9 h
- Tmax ([9]; cynomolgus monkey, plasma, read-out: observed time to peak concentration): ≤ 1.5 h
- molar AUC ratio of YPD-29B to IMMH-010 [9]: 4.17
- half-life ([10]; C57BL/6, mouse, plasma, IMMH-010 maleate 5 mg/kg PO, read-out: elimination half-life (t1/2β) in plasma (converted)): 1.76 h
- Tmax ([10]; C57BL/6, mouse, plasma, IMMH-010 maleate 5 mg/kg PO, read-out: mean time of peak plasma concentration (converted)): 0.25 h
- Cmax ([10]; C57BL/6, mouse, plasma, after last oral dose of IMMH-010 maleate 5 mg/kg for 19 days, read-out: mean peak concentration (Cmax) in plasma): 64.4 ng/mL
- Kp ([10]; C57BL/6, mouse, tumor and plasma, IMMH-010 maleate 5 mg/kg PO, read-out: tissue/plasma ratio (AUCtumor/AUCplasma)): 2.4
- half-life ([10]; C57BL/6, mouse, tumor, IMMH-010 maleate 5 mg/kg PO, read-out: t1/2β in tumor (converted)): 45 h
- Tmax ([10]; C57BL/6, mouse, tumor, IMMH-010 maleate 5 mg/kg PO, read-out: time of maximum concentration in the tumor): 0.25 to 1 h
- area under the plasma concentration versus time curve (AUC) ([10]; IMMH-010 maleate 5 mg/kg PO): ~69.9 ng·h/mL
- area under the plasma concentration versus time curve (AUC) ([11]; B16F10 mice, IMMH-010 maleate 5 mg/kg PO): ~69.9 ng·h/mL
- half-life ([11]; C57BL/6, mouse, plasma, B16F10 mice, IMMH-010 maleate 5 mg/kg PO, read-out: elimination half-life (t1/2β) in plasma (converted)): 1.61 h
- Tmax ([11]; C57BL/6, mouse, plasma, B16F10 mice, IMMH-010 maleate 5 mg/kg PO, read-out: mean time of peak plasma concentration (converted)): 0.25 h
- Cmax ([11]; C57BL/6, mouse, plasma, B16F10 mice, after last oral dose of IMMH-010 maleate 5 mg/kg for 19 days, read-out: mean peak concentration (Cmax) in plasma): 42.6 ng/mL
- Kp ([11]; C57BL/6, mouse, tumor and plasma, B16F10 mice, IMMH-010 maleate 5 mg/kg PO, read-out: tissue/plasma ratio (AUCtumor/AUCplasma)): 2.1
- half-life ([11]; C57BL/6, mouse, tumor, B16F10 mice, IMMH-010 maleate 5 mg/kg PO, read-out: t1/2β in tumor (converted)): 12.4 h
- Tmax ([11]; C57BL/6, mouse, tumor, B16F10 mice, IMMH-010 maleate 5 mg/kg PO, read-out: time of maximum concentration in the tumor): 0.25 to 1 h
- t1/2β in tumors relative to plasma ([11]; range over B16F10 and MC38 xenograft mice): 7.6–25 times

Structure (SMILES): OCc1cc(Cl)c(OCc2cccc(-c3ccccc3)c2Br)cc1OCc1cccnc1 [M3]
- enzyme with the highest metabolic activity for formation of the metabolite [5]: CYP2D6
- metabolite in rat feces and bile [6]: detected
- transformation ratio of IMMH-010 to this metabolite [7]: < 2%
- amount of minor metabolite formed [12]: < 3%
- transformation ratio of IMMH-010 to this metabolite [8]: < 2%

Structure (SMILES): O=C(O)c1cc(Cl)c(OCc2cccc(-c3ccccc3)c2Br)cc1OCc1cccnc1 [M4]
- formation of the metabolite in CYP and FMO incubations [5]: not detected
- metabolite in rat feces and bile [6]: detected
- amount of minor metabolite formed [12]: < 3%

— publication PMC8143347, “Metabolism and Interspecies Variation of IMMH-010, a Programmed Cell Death Ligand 1 Inhibitor Prodrug” (Pharmaceutics, 2021)
